How the values were obtained:
[1] = test system: MDA-MB-231 breast carcinoma cells; assay: LUMIBLAST cell viability, MTT assay; assay type: cell-based; conditions: 1.2 mM 5-ALA + DZ203 400 μM, 100 μM CuSO4, ~20 hours
Description: (§1) Efficiency of the luminol derivatives was investigated. The initial derivative tested was HD92 (also referred to herein as “AP47”). U87 cells were inoculated in 96 well plates. The cells were then divided into the following groups (at least 6 parallels per group): CTRL (media only), ALA CTRL (2 mM), HD92 CTRL (500 μM) and the LUMIBLAST group (2 mM 5-ALA and 500 μM HD92). Correspondingly, MCF7 cells were inoculated in 96 well plates and left to grow overnight. The cells were then divided into the following groups (at least 6 parallels per group): CTRL (media only), Hypocrellin A CTRL (HYPA 7 μM), HD92 CTRL (500 μM) and the LUMIBLAST group (7 μM HYPA and 500 μM HD92). These four groups were incubated in media with and without 10 μM FeSO4 in the case of experiments with HYPA. Following incubation of the cells with their respective drug strategies overnight (˜20 hours), the cell groups were tested for their viability using a standard MTT assay. In brief, all cell groups were incubated with 0.5 mg/mL MTT for 3 hours. The MTT media were subsequently replaced with DMSO (100 μL) to solubilise the formazan. The wells were read for absorbance at 562 nm using a Tecan Spark OM plate reader. The cytotoxicity was determined as the percentage of control (media only) absorbance following subtraction of blank values from wells without cells.
MDA-MB-231 cells were inoculated in 96 well plates. […]

U87 cells = assay: LUMIBLAST cell viability, MTT assay; assay type: cell-based
Description: Efficiency of the luminol derivatives was investigated. The initial derivative tested was HD92 (also referred to herein as “AP47”). U87 cells were inoculated in 96 well plates. The cells were then divided into the following groups (at least 6 parallels per group): CTRL (media only), ALA CTRL (2 mM), HD92 CTRL (500 μM) and the LUMIBLAST group (2 mM 5-ALA and 500 μM HD92). Correspondingly, MCF7 cells were inoculated in 96 well plates and left to grow overnight. The cells were then divided into the following groups (at least 6 parallels per group): CTRL (media only), Hypocrellin A CTRL (HYPA 7 μM), HD92 CTRL (500 μM) and the LUMIBLAST group (7 μM HYPA and 500 μM HD92). These four groups were incubated in media with and without 10 μM FeSO4 in the case of experiments with HYPA. […] In brief, all cell groups were incubated with 0.5 mg/mL MTT for 3 hours. The MTT media were subsequently replaced with DMSO (100 μL) to solubilise the formazan. The wells were read for absorbance at 562 nm using a Tecan Spark OM plate reader. The cytotoxicity was determined as the percentage of control (media only) absorbance following subtraction of blank values from wells without cells.
MCF7 and U87 cells were inoculated in 96 well plates. The cells were then divided into the following groups (at least 6 parallels per group): CTRL (media only), HYPA CTRL (3 μM), DZ168 CTRL (5, 10, 20 and 30 μM), and the LUMIBLAST combinations (3 μM HYPA+DZ168 5-30 μM). These cell group incubations were also repeated in media containing 100 μM CuSO4. […]
MCF7 and U87 cells were inoculated in 96 well plates. The cells were then divided into the following groups (at least 6 parallels per group):CTRL (media only), HYPA CTRL (5 μM), DZ167 CTRL (25-200 μM), and the LUMIBLAST combinations (5 μM HYPA+DZ167 25-200 μM). These incubations were performed in media containing 50 μM CuSO4. […]
The subcellular localisation of cercosporin together with that of synthesised derivatives DZ203 (short alkyl linker) and DZ196 (oligoPEG linker) was investigated. U87 cells were inoculated in 96 well plates. The cells were then divided into the following groups (at least 6 parallels per group). CTRL (media only), Cercosporin CTRL (3 μM), DZ203 CTRL (200 μM), DZ196 CTRL (500 μM) and the LUMIBLAST combinations (3 μM cercosporin+DZ203 200 μM or 3 μM cercosporin DZ196 500 μM). […]

MCF7 cells = assay: LUMIBLAST cell viability, MTT assay; assay type: cell-based
Description: as §1
MCF7 and U87 cells were inoculated in 96 well plates. The cells were then divided into the following groups (at least 6 parallels per group): CTRL (media only), HYPA CTRL (3 μM), DZ168 CTRL (5, 10, 20 and 30 μM), and the LUMIBLAST combinations (3 μM HYPA+DZ168 5-30 μM). These cell group incubations were also repeated in media containing 100 μM CuSO4. Following incubation of the cells with their respective drug strategies overnight (˜20 hours), the cell groups were tested for their viability using the MTT assay.

cells = conditions: luminol together with transferrin-haematoporphyrin conjugates; cited from earlier work

O=c1[nH][nH]c(=O)c2c(NCCC[P+](c3ccccc3)(c3ccccc3)c3ccccc3)cccc12.[I-] [DZ203, (3-((1,4-dioxo-1,2,3,4-tetrahydrophthalazin-5-yl)amino)propyl)triphenylphosphonium iodide]
LUMIBLAST effect (MTT viability) [1]: substantial synergy
LUMIBLAST effect (MTT viability) (U87 cells; U87, 3 μM cercosporin + DZ203 200 μM, 24 hours, presence of Cu (150 μM)): very profound effect

O=c1[nH][nH]c(=O)c2c(NCCOCCOCC[P+](c3ccccc3)(c3ccccc3)c3ccccc3)cccc12.[I-] [DZ196, (2-(2-(2-((1,4-dioxo-1,2,3,4-tetrahydrophthalazin-5-yl)amino)ethoxy)ethoxy)ethyl)triphenylphosphonium iodide]
LUMIBLAST effect (MTT viability) (U87 cells; U87, 3 μM cercosporin + DZ196 500 μM, without Cu): smaller effect

NCC(=O)CCC(=O)O [Compound 5-ALA, 5-aminolevulinic acid, reference compound]
efficiency of photosensitizer in producing LUMIBLAST effects (U87 cells; 2 mM 5-ALA with 500 μM HD92 in U87, compared with HYPA in MCF7 with FeSO4): less efficient in producing LUMIBLAST effects than HYPA

O=C(CCCCC[P+](c1ccccc1)(c1ccccc1)c1ccccc1)Nc1cccc2c(=O)[nH][nH]c(=O)c12.[Br-] [AP47, (6-((1,4-dioxo-1,2,3,4-tetrahydrophthalazin-5-yl)amino)-6-oxohexyl)triphenylphosphonium bromide]
combinatory cytotoxic effect (MTT viability) (U87 cells; U87, 2 mM 5-ALA and 500 μM HD92, ~20 hours, relative to HD92 control): combinatory cytotoxic effect is profoundly significant
toxicity of the derivative alone (MTT viability) (U87 cells; U87, HD92 CTRL 500 μM, ~20 hours): sub-toxic but very near the margins of chemical toxicity
combinatory cytotoxic effect (MTT viability) (MCF7 cells; 7 μM HYPA and 500 μM HD92, 10 μM FeSO4, ~20 hours, relative to HD92 control): combinatory cytotoxic effect is profoundly significant
toxicity of the derivative alone (MTT viability) (MCF7 cells; HD92 CTRL 500 μM, ~20 hours): sub-toxic but very near the margins of chemical toxicity

O=c1[nH][nH]c(=O)c2c(NCCCCCC[P+](c3ccccc3)(c3ccccc3)c3ccccc3)cccc12.[I-] [DZ167, (6-((1,4-dioxo-1,2,3,4-tetrahydrophthalazin-5-yl)amino)hexyl)triphenylphosphonium iodide]
LUMIBLAST effect (MTT viability) (U87 cells; U87, 200 μM DZ167, 5 μM HYPA and 50 μM CuSO4, ~20 hours): synergistic effect

O=c1[nH][nH]c(=O)c2c(NCCCCCCCCCC[P+](c3ccccc3)(c3ccccc3)c3ccccc3)cccc12.[I-] [DZ168, (10-((1,4-dioxo-1,2,3,4-tetrahydrophthalazin-5-yl)amino)decyl)triphenylphosphonium iodide]
toxicity (MTT viability) (U87 cells; U87, 3 μM HYPA + DZ168 5-30 μM, 100 μM CuSO4, ~20 hours): not affected
toxicity (MTT viability) (MCF7 cells; 3 μM HYPA + DZ168 5-30 μM, 100 μM CuSO4, ~20 hours): enhanced toxicity

Nc1cccc2c(=O)[nH][nH]c(=O)c12 [luminol]
cytotoxicity (cells): 95%

— US12121581B2, “Method of photodynamic therapy” (OSLO UNIVERSITETSSYKEHUS HF, priority 2018, dated 2024)
